Assay [1] concerns HNSCC cell lines. In words: Cell cycle analysis (BrdU/7-AAD flow cytometry). Type of assay: cell-based, human. To be noted: 50 nM. On the procedure:
FIGS. 16A-16C: Effects of PI3K/mTOR signaling inhibition on the survival of NOTCH1MUT and NOTCH1WT head and neck squamous cell carcinoma (HNSCC) cell lines in vitro. FIG. 16A. The Annexin V/propidium iodide assay was used to assess apoptosis in HNSCC cells that had the indicated NOTCH1 and PIK3CA mutations and were treated with 500 nM BAY806946. Values are the means {plus minus} standard deviations of three independent experiments. […], unpaired two-tailed Student t-test. FIG. 16B. NOTCH1MUT lines (red text) and NOTCH1WT lines (black text) were treated with increasing concentrations of BAY806946 for 3 hours, and then Western blotting was used to assess levels of p-AKT (S473). FIG. 16C. NOTCH1WT lines (black text), NOTCH1MUT lines (red text), and PIK3CAMUT lines (blue text) were treated with 50 nM GSK2126458 (GSK212) and then pulse-labeled with BrDU and counterstained with 7-AAD for flow cytometry.
Apoptosis and cell cycle assays. […] Data were acquired with a three-laser, 10-color Gallios flow cytometer (Beckman Coulter, Brea, CA) and analyzed using Kaluza software (Beckman Coulter, Brea, CA). […]
In general terms: A flow cytometer gives signals particle by particle.

The subject of assay [2] is HNSCC cell lines. The assay is described as follows: Colony formation assay. Type of assay: cell-based, human. To be noted: 48 hours treatment, 14-21 days, NOTCH1MUT compared with NOTCH1WT lines, below peak plasma concentration. The method, then: FIGS. 7A-7D: PI3K/mTOR signaling inhibition induces cell death in NOTCH1^MUT but not NOTCH1^WT head and neck squamous cell carcinoma (HNSCC) cell lines in vitro. FIG. 7A. Annexin V/propidium iodide or BrDU-terminal deoxynucleotidyl transferase (TdT) dUTP nick-end labeling (TUNEL) assays were used to measure apoptosis in HNSCC cells with the indicated NOTCH1 and PIK3CA mutations, which were treated with 50 nM GSK2126458 (GSK212) for 24 or 48 hours, respectively. Values are the means±standard deviations of three independent experiments. *p<0.05, unpaired two-tailed Student t-test. FIG. 7B. […] At 14-21 days after treatment, the cells were fixed and stained, images were captured using the GelCount Tumour Colony Counter, and colony numbers and the colorimetric intensity of the colonies were determined by measuring the optical density (OD) at 570 nm. […] Three NOTCH1^WT lines (black text and bars) and three NOTCH1^MUT lines (red text and bars) were treated with increasing concentrations of GSK212 for 4 hours, and levels of PI3K/mTOR pathway proteins were measured by Western blot analysis.
Colony formation assays. […] The total colony number and area were counted and analyzed using the ImageJ software program (National Institutes of Health, Bethesda, MD). […]

Regarding `COc1ncc(-c2ccc3nccc(-c4ccnnc4)c3c2)cc1NS(=O)(=O)c1ccc(F)cc1F` [GSK2126458], the sub-G0 fraction entry in assay [1] is “increased the sub-G0 fraction in only NOTCH1^MUT lines”. In assay [1] (all cell lines), the G1 arrest entry is “induced G1 arrest in all cell lines”. Besides, the “number of colonies formed and total cell number” value in assay [2] is listed as “significantly reduced”.
